ChEMBL document CHEMBL1139559, “Radical scavenging activity of protein from tentacles of jellyfish Rhopilema esculentum” (Bioorg Med Chem Lett, 2005)
Values after ≈ are worked out from the molar mass of the structure shown.

Assays:
[1] = Effective concentration required for scavenging of superoxide anion radical generation from the tentical protein of jellyfish; format: functional, Rhopilema esculentum
[2] = Effective concentration required for scavenging of hydroxyl radical generation from the tentical protein of jellyfish; format: functional, Rhopilema esculentum

| SMILES | EC50 [1] [µg/mL] | EC50 [2] [µg/mL] |
| --- | --- | --- |
| Cc1c(C)c2c(c(C)c1O)CC[C@@](C)(CCC[C@H](C)CCC[C@H](C)CCCC(C)C)O2 [ALPHA-TOCOPHEROL] | 88 (≈ 204 µM) |  |
| Cc1cc(C(C)(C)C)c(O)c(C(C)(C)C)c1 [BUTYLATED HYDROXYTOLUENE] | 61 (≈ 277 µM) |  |
| COc1ccc(O)c(C(C)(C)C)c1.COc1ccc(O)cc1C(C)(C)C [BUTYLATED HYDROXYANISOLE] | 31 |  |
| OC[C@@H](O)[C@@H](O)[C@H](O)[C@H](O)CO [MANNITOL] |  | 4536 (≈ 24900 µM) |
